Experiments:
VCaP xenografts = experiment: VCaP xenograft in eugonadal mice; format: in vivo; conditions: VCaP xenograft tumors
Description: (§1) Total RNA was extracted with GenElute Mammalian Total RNA miniprep kit (Sigma-Aldrich), and 1 μg RNA was reverse-transcribed to complementary DNA (cDNA) with the iScript cDNA Synthesis Kit (Bio-Rad). An ABI 7500 Real-Time PCR instrument (Applied Biosystems) was used to perform quantitative PCR (qPCR) analysis, using iTaq Fast SYBR Green Supermix with ROX (Bio-Rad) in 96-well plates at a final reaction volume of 10 μl. The qPCR analysis was carried out in triplicate with the following primer sets:
(§2) All mouse studies were performed under a protocol approved by the Institutional Animal Care and Use Committee of the Cleveland Clinic Lerner Research Institute. […]
(§3) To evaluate whether zanubrutinib suppresses tumor growth, 6 million C4-2 or 10 million VCaP cells (100 μl in 50% Matrigel and 50% growth media) were subcutaneously injected into mice. […] Tumor volume and progression-free survival were determined as described above. […] The number of mice in each group was determined by those that survived surgical procedures and had reached the 200 mm^3 tumor volume required to initiate treatment. Tumor diameters were measured by digital calipers three times per week and fresh frozen upon mouse sacrifice.
(§4) Androgens in xenografts were assessed by liquid chromatography tandem mass spectrometry as reported previously with slight modifications (Li et al., 2021; Zhu et al., 2018). […]

C4-2 xenografts = experiment: C4-2 xenograft in eugonadal mice; format: in vivo; conditions: C4-2 xenograft tumors
Description: as §1, §2, §3, §4

C=CC(=O)N1CCC([C@@H]2CCNc3c(C(N)=O)c(-c4ccc(Oc5ccccc5)cc4)nn32)CC1 [zanubrutinib, Zanubrutinib]
no significant effect: tumor testosterone by mass spectrometry (VCaP xenografts) | AR target gene expression (VCaP xenografts; qPCR) | tumor testosterone by mass spectrometry (C4-2 xenografts) | AR target gene expression (C4-2 xenografts; qPCR)

Reference: US20240197744A1, “TREATING SEX STEROID DEPENDENT CANCER WITH BMX INHIBITORS” (The Cleveland Clinic Foundation, priority 2021, published 2024)
